According to US20260356856A1, “KRAS G12S AND G12C INHIBITORS” (MIRATI THERAPEUTICS, INC., priority 2023, published 2026):

What was measured:
KRas G12C = molecular target: T1, KRas G12C (Homo sapiens, UniProt P01116, G12C); assay: KRas binding assay, TR-FRET displacement of Cy5 labelled tracer; details: 60-minute incubation at room temperature, 1% DMSO, pH 7.5
T1 construct: Biotinylated KRas (corresponding to amino acids 1-169, produced at Accelegan Inc.); biotin (biotinylated); purchased Accelegan Inc
Outline: (§1)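 IC50 came from fitting POC values with a four-parameter equation. Signal was read after one hour at room temperature. Protein was biotin-tagged KRas 1-169 captured by terbium streptavidin, with compound in 1% DMSO (final).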

KRas G12S = molecular target: T2, KRas G12S (Homo sapiens, UniProt P01116, G12S); assay: as above; details: 60-minute incubation at room temperature, 1% DMSO, pH 7.5
T2 construct: Biotinylated KRas (corresponding to amino acids 1-169, produced at Accelegan Inc.); biotin (biotinylated); purchased Accelegan Inc
Outline: as §1

KRas WT = molecular target: T3, KRas WT (Homo sapiens, UniProt P01116); assay: as above; details: 60-minute incubation at room temperature, 1% DMSO, pH 7.5
T3 construct: Biotinylated KRas (corresponding to amino acids 1-169, produced at Accelegan Inc.); biotin (biotinylated); purchased Accelegan Inc
Outline: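 Truncated KRas (1-169), biotinylated, Tb-streptavidin donor; one-hour room-temperature incubation; IC50 by four-parameter curve fitting.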

[1] = molecular target: T4, KRas-mediated phosphorylation of ERK in A549 cells (Homo sapiens, UniProt P01116, G12S); assay: Inhibition of KRas-mediated phosphorylation of ERK (HTRF), A549 cells; assay type: cell-based; details: HTRF pERK, 3 h incubation
T4 construct: pERK HTRF read-out

[2] = molecular target: T5, KRas-mediated phosphorylation of ERK in H358 cells (Homo sapiens, UniProt P01116, G12C); assay: Inhibition of KRas-mediated phosphorylation of ERK (HTRF), H358 cells; assay type: cell-based; details: HTRF pERK, 3 h incubation
T5 construct: pERK HTRF read-out

[3] = molecular target: T6, KRas-mediated phosphorylation of ERK in MKN1 cells (Homo sapiens, UniProt P01116); assay: Inhibition of KRas-mediated phosphorylation of ERK (HTRF), MKN1 cells; assay type: cell-based; details: MKN1 cells (KRas WT); HTRF pERK; 3 h incubation
T6 construct: pERK HTRF read-out
Procedure: Inhibition of KRas Phosphorylation of ERK (HTRF) by Exemplary Compounds of Formula (Ia) or (Ib)
Cisbio HTRF Advanced pERK Assay Catalog #64AERPEH • Cells: MKN1, PSN1 • Procedure: • 1. Day 1: Seed 6,000 cells/well −25 μl/well in 384-well white solid bottom plate; RPM1_10% FBS. Incubate overnight at 37 °C/5% CO2. • 2.

T1 sequence (P01116 1-169 isoform P01116-2 G12C): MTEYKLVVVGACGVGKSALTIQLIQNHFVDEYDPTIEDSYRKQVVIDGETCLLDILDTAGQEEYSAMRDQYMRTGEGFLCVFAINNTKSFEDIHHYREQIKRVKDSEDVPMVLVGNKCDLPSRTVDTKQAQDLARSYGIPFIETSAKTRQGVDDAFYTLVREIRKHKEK
T6 sequence (P01116 1-188 isoform P01116-2): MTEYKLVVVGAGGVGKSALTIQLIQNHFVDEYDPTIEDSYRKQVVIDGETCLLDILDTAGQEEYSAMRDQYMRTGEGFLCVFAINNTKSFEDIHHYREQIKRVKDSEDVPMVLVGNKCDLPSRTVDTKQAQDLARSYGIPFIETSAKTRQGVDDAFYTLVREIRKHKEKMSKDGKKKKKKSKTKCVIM
T4 sequence (P01116 1-188 isoform P01116-2 G12S): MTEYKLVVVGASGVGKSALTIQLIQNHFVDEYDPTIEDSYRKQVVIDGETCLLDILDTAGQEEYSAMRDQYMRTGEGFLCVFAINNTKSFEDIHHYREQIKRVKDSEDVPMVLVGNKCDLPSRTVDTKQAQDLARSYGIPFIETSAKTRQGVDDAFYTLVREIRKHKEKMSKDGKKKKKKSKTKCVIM
T2 sequence (P01116 1-169 isoform P01116-2 G12S): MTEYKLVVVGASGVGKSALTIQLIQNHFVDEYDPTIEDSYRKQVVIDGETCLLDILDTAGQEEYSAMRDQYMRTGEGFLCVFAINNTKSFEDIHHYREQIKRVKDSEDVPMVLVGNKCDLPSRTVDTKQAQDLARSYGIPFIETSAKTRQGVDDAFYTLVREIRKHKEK
T3 sequence (P01116 1-169 isoform P01116-2): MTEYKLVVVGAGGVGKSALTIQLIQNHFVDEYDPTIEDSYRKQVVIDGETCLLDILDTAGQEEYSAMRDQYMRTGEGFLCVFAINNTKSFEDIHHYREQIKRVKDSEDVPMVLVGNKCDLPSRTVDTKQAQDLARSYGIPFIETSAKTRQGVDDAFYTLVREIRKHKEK
T5 sequence (P01116 1-188 isoform P01116-2 G12C): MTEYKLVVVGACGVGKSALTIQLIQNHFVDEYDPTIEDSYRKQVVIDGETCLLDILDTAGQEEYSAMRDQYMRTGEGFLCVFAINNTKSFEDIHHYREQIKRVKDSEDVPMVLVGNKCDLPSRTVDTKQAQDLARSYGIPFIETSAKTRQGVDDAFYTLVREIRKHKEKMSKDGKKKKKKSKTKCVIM

Compound | IC50 (KRas G12C) | IC50 (KRas G12S) | IC50 (KRas WT) | IC50 [1] | IC50 [2] | IC50 [3]
CCc1c(F)ccc2cc(O)cc(N3CCc4c(nc(OC[C@@]56CCCN5C[C@H](F)C6)nc4N4CCCC(C(=O)n5ccc(C)n5)C4)C3)c12 (stereo partly drawn) [Example 144, (1-(7-(8-ethyl-7-fluoro-3-hydroxynaphthalen-1-yl)-2-(((2R,7aS)-2-fluorotetrahydro-1H-pyrrolizin-7a(5H)-yl)methoxy)-5,6,7,8-tetrahydropyrido[3,4-d]pyrimidin-4-yl)piperidin-3-yl)(3-methyl-1H-pyrazol-1-yl)methanone] | 50 nM | 32 nM | 68 nM | 5900 nM | 178 nM | 
CCc1c(F)ccc2cc(O)cc(-c3ncc4c(N5CCN(C(=O)n6cccn6)CC5)nc(OC[C@@]56CCCN5C[C@H](F)C6)nc4c3F)c12 [Example 60, (4-(7-(8-ethyl-7-fluoro-3-hydroxynaphthalen-1-yl)-8-fluoro-2-(((2R,7aS)-2-fluorotetrahydro-1H-pyrrolizin-7a(5H)-yl)methoxy)pyrido[4,3-d]pyrimidin-4-yl)piperazin-1-yl)(1H-pyrazol-1-yl) methanone] | 76 nM | 115 nM | 24 nM | 2350 nM | 450 nM | 
CCc1c(F)ccc2cc(O)cc(N3CCc4c(nc(OC[C@@]56CCCN5C[C@H](F)C6)nc4N4CCCCC(C(=O)n5ccc(C)n5)CC4)C3)c12 (stereo partly drawn) [Example 148, (1-(7-(8-ethyl-7-fluoro-3-hydroxynaphthalen-1-yl)-2-(((2R,7aS)-2-fluorotetrahydro-1H-pyrrolizin-7a(5H)-yl)methoxy)-5,6,7,8-tetrahydropyrido[3,4-d]pyrimidin-4-yl)azocan-4-yl)(3-methyl-1H-pyrazol-1-yl)methanone] | 19 nM | 10 nM | 147 nM | 140 nM |  | 108 nM
CCc1c(F)ccc2cc(O)cc(-c3ncc4c(N5CC6CC(C(=O)n7ccc(C)n7)C6C5)nc(OC[C@@]56CCCN5C[C@H](F)C6)nc4c3F)c12 (stereo partly drawn) [Example 98, (3-(7-(8-ethyl-7-fluoro-3-hydroxynaphthalen-1-yl)-8-fluoro-2-(((2R,7aS)-2-fluorotetrahydro-1H-pyrrolizin-7a(5H)-yl)methoxy)pyrido[4,3-d]pyrimidin-4-yl)-3-azabicyclo[3.2.0]heptan-6-yl)(3-methyl-1H-pyrazol-1-yl)methanone] | 73 nM | 20 nM | 178 nM | 61 nM |  | 2490 nM
CCc1c(F)ccc2cc(O)cc(-c3c(F)cc4c(N5CCCC(C(=O)n6ccc(C)n6)CC5)nc(OC[C@@]56CCCN5C[C@H](F)C6)nc4c3F)c12 (stereo partly drawn) [Example 174, (1-(7-(8-ethyl-7-fluoro-3-hydroxynaphthalen-1-yl)-6,8-difluoro-2-(((2R,7aS)-2-fluorotetrahydro-1H-pyrrolizin-7a(5H)-yl)methoxy)quinazolin-4-yl)azepan-4-yl)(3-methyl-1H-pyrazol-1-yl)methanone] | 1120 nM | 182 nM | 1120 nM | 507 nM |  | 3000 nM
Cc1ccn(C(=O)C23CCC(CN(c4nc(OC[C@@]56CCCN5C[C@H](F)C6)nc5c(F)c(-c6ccc(F)c7sc(N)c(C#N)c67)c(Cl)cc45)C2)C3)n1 (stereo partly drawn) [Example 183, 2-amino-4-(6-chloro-8-fluoro-2-(((2R,7aS)-2-fluorotetrahydro-1H-pyrrolizin-7a(5H)-yl)methoxy)-4-(1-(3-methyl-1H-pyrazole-1-carbonyl)-3-azabicyclo[3.2.1]octan-3-yl)quinazolin-7-yl)-7-fluorobenzo[b]thiophene-3-carbonitrile] | 4 nM | 3 nM | 5 nM | 143 nM |  | 192 nM
CCc1c(F)ccc2cc(O)cc(-c3ncc4c(N5C[C@@H]6[C@H](C5)[C@@H]6C(=O)n5ccc(C)n5)nc(OC[C@@]56CCCN5C[C@H](F)C6)nc4c3F)c12 [Example 114, ((1R,5S,6R)-3-(7-(8-ethyl-7-fluoro-3-hydroxynaphthalen-1-yl)-8-fluoro-2-(((2R,7aS)-2-fluorotetrahydro-1H-pyrrolizin-7a(5H)-yl)methoxy)pyrido[4,3-d]pyrimidin-4-yl)-3-azabicyclo[3.1.0]hexan-6-yl)(3-methyl-1H-pyrazol-1-yl)methanone] | 776 nM | 664 nM | 1180 nM | > 10000 nM |  | 7830 nM
CCc1c(F)ccc2cc(O)cc(-c3ncc4c(N5CCC(COC)(C(=O)n6ccc(C)n6)C5)nc(OC[C@@]56CCCN5C[C@H](F)C6)nc4c3F)c12 (stereo partly drawn) [Example 95, (1-(7-(8-ethyl-7-fluoro-3-hydroxynaphthalen-1-yl)-8-fluoro-2-(((2R,7aS)-2-fluorotetrahydro-1H-pyrrolizin-7a(5H)-yl)methoxy)pyrido[4,3-d]pyrimidin-4-yl)-3-(methoxymethyl)pyrrolidin-3-yl)(3-methyl-1H-pyrazol-1-yl)methanone] | 257 nM | 1600 nM | 1080 nM | 4220 nM |  | > 10000 nM
Cc1ccn(C(=O)C2CCCCCN(c3nc(OC[C@@]45CCCN4C[C@H](F)C5)nc4c(F)c(-c5ccc(F)c6sc(N)c(C#N)c56)c(Cl)cc34)C2)n1 (stereo partly drawn) [Example 173, 2-amino-4-(6-chloro-8-fluoro-2-(((2R,7aS)-2-fluorotetrahydro-1H-pyrrolizin-7a(5H)-yl)methoxy)-4-(3-(3-methyl-1H-pyrazole-1-carbonyl)azocan-1-yl)quinazolin-7-yl)-7-fluorobenzo[b]thiophene-3-carbonitrile] | 29 nM | 27 nM | 31 nM | 772 nM |  | 54 nM
CCc1c(F)ccc2cc(O)cc(-c3ncc4c(NCCC(=O)n5ccc(C)n5)nc(OC[C@@]56CCCN5C[C@H](F)C6)nc4c3F)c12 [Example 122, 3-((7-(8-ethyl-7-fluoro-3-hydroxynaphthalen-1-yl)-8-fluoro-2-(((2R,7aS)-2-fluorotetrahydro-1H-pyrrolizin-7a(5H)-yl)methoxy)pyrido[4,3-d]pyrimidin-4-yl)amino)-1-(3-methyl-1H-pyrazol-1-yl) propan-1-one] | 9 nM | 5 nM | 19 nM | 38 nM |  | 342 nM
CCc1c(F)ccc2cc(O)cc(-c3ncc4c(N5CC6(C(=O)n7ccc(C)n7)CCCC5C6)nc(OC[C@@]56CCCN5C[C@H](F)C6)nc4c3F)c12 (stereo partly drawn) [Example 87, (6-(7-(8-ethyl-7-fluoro-3-hydroxynaphthalen-1-yl)-8-fluoro-2-(((2R,7aS)-2-fluorotetrahydro-1H-pyrrolizin-7a(5H)-yl)methoxy)pyrido[4,3-d]pyrimidin-4-yl)-6-azabicyclo[3.2.1]octan-1-yl)(3-methyl-1H-pyrazol-1-yl)methanone] | 365 nM | 1680 nM | 1580 nM | > 10000 nM |  | 4060 nM
CCc1c(F)ccc2cc(O)cc(-c3ncc4c(NC[C@@H]5[C@H](C(=O)n6ccc(C)n6)C5(C)C)nc(OC[C@@]56CCCN5C[C@H](F)C6)nc4c3F)c12 [Example 109, ((1S,3R)-3-(((7-(8-ethyl-7-fluoro-3-hydroxynaphthalen-1-yl)-8-fluoro-2-(((2R,7aS)-2-fluorotetrahydro-1H-pyrrolizin-7a(5H)-yl)methoxy)pyrido[4,3-d]pyrimidin-4-yl)amino)methyl)-2,2-dimethylcyclopropyl)(3-methyl-1H-pyrazol-1-yl)methanone] | 134 nM | 99 nM | 73 nM | 1920 nM |  | 316 nM
CCc1c(F)ccc2cc(O)cc(N3CCc4c(nc(OC[C@@]56CCCN5C[C@H](F)C6)nc4N4CCC(C(=O)n5ccc(C)n5)C4)C3)c12 (stereo partly drawn) [Example 197, (1-(7-(8-ethyl-7-fluoro-3-hydroxynaphthalen-1-yl)-2-(((2R,7aS)-2-fluorotetrahydro-1H-pyrrolizin-7a(5H)-yl)methoxy)-5,6,7,8-tetrahydropyrido[3,4-d]pyrimidin-4-yl)pyrrolidin-3-yl)(3-methyl-1H-pyrazol-1-yl)methanone] | 21 nM | 28 nM | 176 nM | 164 nM |  | 4950 nM
CCc1c(F)ccc2cc(O)cc(-c3ncc4c(N5C[C@H]6C[C@H](C(=O)n7ccc(C)n7)C[C@H]6C5)nc(OC[C@@]56CCCN5C[C@H](F)C6)nc4c3F)c12 [Example 160, ((3aR,5R,6aS)-2-(7-(8-ethyl-7-fluoro-3-hydroxynaphthalen-1-yl)-8-fluoro-2-(((2R,7aS)-2-fluorotetrahydro-1H-pyrrolizin-7a(5H)-yl)methoxy)pyrido[4,3-d]pyrimidin-4-yl)octahydrocyclopenta[c]pyrrol-5-yl)(3-methyl-1H-pyrazol-1-yl)methanone] | 1790 nM | 461 nM | 258 nM | 3380 nM |  | 3690 nM
